{"source": "paper PMC8617681", "about": "(Pharmaceuticals, 2021)", "key": {"[1]": {"test": "Oral selpercatinib pharmacokinetics in mice, summarised over the studies", "assay_type": "in vivo", "details": "FVB (wild-type), mouse, plasma, 10 mg/kg oral, average", "experimental": "For the 4 h transporter experiments, tail-vein blood samples were collected at 0.125, 0.25, 0.5, 1, and 2 h time points after oral administration, respectively. For the CYP3A 8 h experiments, tail-vein blood sampling was performed at 0.25, 0.5, 1, 2, and 4 h, respectively. While for elacridar inhibition experiments, tail-vein blood samples were collected at 0.125, 0.25, 0.5, and 1 h time points after oral administration, respectively. Blood sample collection was performed using microvettes containing dipotassium EDTA. At the last time point in each experiment (2, 4 or 8 h), mice were anesthetized with 5% isoflurane and blood was collected by cardiac puncture. Blood samples were collected in Eppendorf tubes containing heparin as an anticoagulant. The mice were then sacrificed by cervical dislocation and brain, liver, kidney, lung, small intestine and testis were rapidly removed. Plasma was isolated from the blood by centrifugation at 9000× g for 6 min at 4 °C, and the plasma fraction was collected and stored at −30 °C until analysis. Organs were homogenized with 4% (w/v) bovine serum albumin and stored at −30 °C until analysis.\nPharmacokinetic parameters were calculated by noncompartmental methods using the PK solver software. The area under the plasma concentration–time curve (AUC) was calculated using the trapezoidal rule, without extrapolating to infinity. […]"}, "human OATP1B1": {"target": "T1, human OATP1B1 (Homo sapiens, UniProt Q9Y6L6)", "T1 construct": "Werner Siegmund and Dr. Markus Keiser (University of Greifswald); host or cells: HEK293", "T1 sequence (Q9Y6L6 1-691)": "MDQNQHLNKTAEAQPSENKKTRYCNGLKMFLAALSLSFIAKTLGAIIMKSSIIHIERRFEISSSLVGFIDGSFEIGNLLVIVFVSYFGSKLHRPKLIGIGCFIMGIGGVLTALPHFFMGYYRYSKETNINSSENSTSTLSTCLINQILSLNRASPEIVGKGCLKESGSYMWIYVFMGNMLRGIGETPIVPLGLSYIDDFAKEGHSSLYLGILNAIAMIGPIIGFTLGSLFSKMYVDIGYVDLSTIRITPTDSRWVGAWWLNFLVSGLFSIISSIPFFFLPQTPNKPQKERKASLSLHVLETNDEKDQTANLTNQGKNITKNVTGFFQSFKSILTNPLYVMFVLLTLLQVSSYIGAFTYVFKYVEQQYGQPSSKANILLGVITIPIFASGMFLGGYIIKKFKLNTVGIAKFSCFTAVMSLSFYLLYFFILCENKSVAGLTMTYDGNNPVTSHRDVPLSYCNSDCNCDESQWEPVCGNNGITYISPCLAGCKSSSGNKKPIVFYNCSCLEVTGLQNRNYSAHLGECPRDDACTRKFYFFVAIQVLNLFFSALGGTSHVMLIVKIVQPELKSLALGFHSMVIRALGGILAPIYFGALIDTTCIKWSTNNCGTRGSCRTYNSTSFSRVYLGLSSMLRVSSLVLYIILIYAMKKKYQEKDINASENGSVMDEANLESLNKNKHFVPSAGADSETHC", "test": "Cellular uptake in OATP1B1-overexpressing HEK293 cells", "assay_type": "in vitro ADME", "details": "5 µM, 2.5 min incubation, HEK293 OATP1B1", "experimental": "HEK293 cells, vector-transfected or human (h)SLCO1A2, hSLCO1B1 or hSLCO1B3 cDNA-transfected were kind gifts from Prof. Werner Siegmund and Dr. Markus Keiser (University of Greifswald, Greifswald, Germany). All the HEK293 cell lines were maintained in DMEM supplemented with 10% (v/v) FBS, 1% penicillin–streptomycin mix at 37 °C in 5% (v/v) CO2 and 500 μg/mL G418. Cells were first seeded in 12-well plates [coated with 50 mg/L poly (l-lysine) and 50 mg/L poly (l-ornithine)] at a density of 1.0 × 10^5 cells/well. For the uptake study, in order to induce the expression of OATP transporters, the cell culture medium was replaced with culture medium supplemented with 5 mM sodium butyrate 24 h before performing the uptake assay.\nThe uptake transport study was performed as described previously. […] The Krebs–Henseleit solution was prepared from Krebs–Henseleit-buffer modified powder and supplemented with 25 mM NaHCO3 and 2.5 mM CaCl2 adjusted to pH 6.4 with 1 M HCL. At 2.5 min, the incubation buffer was removed, and uptake was terminated by adding 1 mL of ice-cold Krebs–Henseleit buffer, followed by two times washing with 1 mL of ice-cold Krebs–Henseleit buffer. […] The cellular protein amount was determined by the Bradford method using 10 μL of the cell lysates with bovine serum albumin as a standard."}}, "data": [{"smiles": "COc1ccc(CN2C3CC2CN(c2ccc(-c4cc(OCC(C)(C)O)cn5ncc(C#N)c45)cn2)C3)cn1", "note": "[selpercatinib]", "values": [{"measurement": "Cmax", "setting": "[1]", "result": "~8000", "unit": "ng/mL"}, {"measurement": "uptake compared to vector control cells", "setting": "human OATP1B1", "result": "did not observe any significant increase in the uptake"}]}]}
